Measurements as given in patent US10827753B2, “Compositions and methods for controlling nematodes” (Monsanto Technology LLC, priority 2007, dated 2020).
Marks after values point to notes of the source that are not given here.

What was measured:
Meloidogyne incognita [1] = experiment: M. incognita miniaturized greenhouse assay on cucumber seedlings (root galling); format: in vivo; design: key to 1 ppm gall ratings / 1 ppm gall rating: mean of 3 gall ratings: 0=0-5%, 1=6-20%, 2=21-50%, 3=51-100% root galled; conditions: for 8 ppm gall ratings: average of triplicate gall rating, scale 0-3 (% root mass galled)
Description: The test compound is dissolved in an acetone solution and added to water. A sprouted cucumber seedling is placed into a vial with dry sand and the water-chemical solution is added immediately. Twenty four hours later Meloidogyne incognita eggs are added to the vials and 10 to 12 days later the roots are evaluated for nematode galling.
Cucumber seeds are sprouted for 3 days in moist paper towels. Acceptable sprouts should be 3 to 4 cm long with several lateral roots just emerging. Stock solutions of chemistry are prepared in a mixture of acetone and Triton X100 (412 mg in 500 mL) to a final concentration of 5 mg/mL. The chemical stock solution is then added to 10 mL deionized water plus 0.015% Triton X100 and mixed thoroughly. This is enough to test each condition in triplicate. Ten mL dry sand is added to each vial. At this time the solubility of the chemistry is visually determined and recorded as either ppt (large precipitates) or cloudy (fine precipitates). Seedlings are planted by tilting the vial and laying the seedling in the correct orientation so that the cotyledons are just above the sand and then tilting back to cover the radicles with sand. 3.3 ml water/chemical mix is added to each vial and the vials placed in racks under fluorescent light banks. The vials are inoculated two days after planting by adding 500 vermiform M. incognita eggs to each vial in 50 uL of deionized or spring water. The vials are then kept under the fluorescent lamps at ambient room temperature and watered as needed with 1 mL deionized water, usually twice during duration of test. Harvest of the cucumber plants is done 10 to 12 days after inoculation by washing sand off the roots. A root gall rating and visual phytotoxicity rating is assigned using the following scales: Gall rating scale (Gall: % root mass galled): 0=0-5%; 1=6-20%; 2=21-50%; and 3=51-100%. The average of the triplicate gall rating is then calculated: green=0.00-0.33 (no galls); yellow=0.67-1.33 (mild galling); orange=1.67-2.33 (moderate galling); red=2.67-3.00 (severe galling). Visual phytotoxicity scale is also assigned (Vis. tox; visual reduction in root mass compared to the control): rs1=mild stunting; rs2=moderate stunting; rs3=severe stunting.

Meloidogyne incognita [2] = experiment: Summer field evaluation of pre-plant incorporated compounds on squash; format: in vivo; conditions: 2 kg PPI, squash
Description: Test plots of 33 cm diameter holes were bored 41 cm deep into clay soil and filled with a mixture of 80% sand and 20% silt loam soil. Technical compound for each treatment was dissolved in 50 ml acetone containing 250 ul of Triton X-100 surfactant. This solution was added to 450 ml water and poured onto 95 liters of sand/soil mixture in a rotating drum mixer. While continuing to rotate the mixing drum 66 grams of chopped, galled, tomato roots was added and thoroughly distributed. The treated soil was sufficient to fill the top 15 cm of each of the 6 replicate plots, thus simulating a PPI treatment. The plots were then watered lightly and a mixture of M. incognita eggs and larvae were injected 5 cm deep at 5 points within the plot (100 k eggs/larvae in 10 ml per plot). Three-week old squash (cv. Liberator III) with 1 fully expanded true leaf was planted 4 days after soil treatment, one per plot.

Cc1ccc(-c2nnc(-c3ccco3)o2)cc1 [compound 5666]
8 ppm gall ratings (Meloidogyne incognita [1]; 8 ppm): 1.33

Clc1ccc(-c2noc(-c3ccsc3)n2)cc1 [compound 5885]
1 ppm gall rating (Meloidogyne incognita [1]; Table 1C test a): 1^a (1=6-20%)

Clc1ccc(-c2cnc(-c3ccoc3)o2)cc1 [compound 5887]
1 ppm gall rating (Meloidogyne incognita [1]; Table 1C test b): 1^b (1=6-20%)

Fc1ccc(-c2cnc(-c3ccco3)o2)cc1 [compound 5618]
8 ppm gall ratings (Meloidogyne incognita [1]; 8 ppm): 1.33

Clc1ccc(-c2nnc(-c3ccco3)o2)c(Cl)c1 [compound 5499]
1 ppm gall ratings (Meloidogyne incognita [1]; Table 1B test a): 1^a (1=6-20%) | 8 ppm gall ratings (Meloidogyne incognita [1]; 8 ppm): 0 (0=0-5%)

Cc1cc(Cl)ccc1-c1nc(-c2ccco2)no1 [compound 5969]
1 ppm gall ratings (Meloidogyne incognita [1]; Table 1B test e): 1^e (1=6-20%)

Brc1ccc(-c2nc(-c3cccs3)no2)cc1 [compound 5475]
8 ppm gall ratings (Meloidogyne incognita [1]; 8 ppm): 1.33

Clc1ccccc1-c1noc(-c2cccs2)n1 [compound 5738]
1 ppm gall rating (Meloidogyne incognita [1]; Table 1D test a): 1.33^a | 8 ppm gall rating (Meloidogyne incognita [1]; 8 ppm, Table 1D test a): 0^a (0=0-5%)

c1ccc(-c2cc(-c3ccco3)n[nH]2)cc1 [3-(furan-2-yl)-5-phenyl-1H-pyrazole, reference compound]
nematicidal activity (in words, referring to table 1D) (Meloidogyne incognita [1]; 8 ppm): nematicidal activity is seen

Cc1occc1-c1nc(-c2ccc(Cl)cc2)no1 [compound 5867]
1 ppm gall rating (Meloidogyne incognita [1]; Table 1C test a): 1^a (1=6-20%)

Clc1ccc(-c2noc(-c3ccoc3)n2)cc1 [compound 5882]
1 ppm gall ratings (Meloidogyne incognita [1]; Table 1B test a): 0.67^a | 1 ppm gall rating (Meloidogyne incognita [1]; Table 1C test c): 0.67^c

Clc1cccc(-c2nnc(-c3cccs3)o2)c1 [compound 5012]
8 ppm gall ratings (Meloidogyne incognita [1]; 8 ppm): 0.67

Ic1ccc(-c2noc(-c3ccco3)n2)cc1 [compound 5556]
8 ppm gall ratings (Meloidogyne incognita [1]; 8 ppm): 0.33

Fc1ccc(-c2noc(-c3ccco3)n2)cc1 [compound 5478]
8 ppm gall ratings (Meloidogyne incognita [1]; 8 ppm): 0 (0=0-5%)

c1ccc(-c2csc(-c3cccs3)n2)cc1 [compound 5645]
1 ppm gall rating (Meloidogyne incognita [1]; Table 1D test b): 2^b (2=21-50%) | 8 ppm gall rating (Meloidogyne incognita [1]; 8 ppm, Table 1D test b): 0^b (0=0-5%)

c1ccc(-c2cnc(-c3ccco3)o2)cc1 [compound 5586]
8 ppm gall ratings (Meloidogyne incognita [1]; 8 ppm): 0.67

Cc1cc(Cl)ccc1-c1nnc(-c2ccoc2)o1 [compound 5876]
1 ppm gall rating (Meloidogyne incognita [1]; Table 1C test c): 1.67^c

Brc1cccc(-c2nnc(-c3ccco3)o2)c1 [compound 5671]
8 ppm gall ratings (Meloidogyne incognita [1]; 8 ppm): 0.67

Cc1cccc(-c2noc(-c3cccs3)n2)c1 [compound 5622]
8 ppm gall ratings (Meloidogyne incognita [1]; 8 ppm): 0 (0=0-5%)

FC(F)(F)c1ccc(-c2nnc(-c3cccs3)o2)cc1 [compound 4971]
8 ppm gall ratings (Meloidogyne incognita [1]; 8 ppm): 0.67

Brc1cccc(-c2noc(-c3ccco3)n2)c1 [compound 5672]
8 ppm gall ratings (Meloidogyne incognita [1]; 8 ppm): 0 (0=0-5%)

Brc1ccc(-c2cnc(-c3ccco3)o2)cc1 [compound 5587]
8 ppm gall ratings (Meloidogyne incognita [1]; 8 ppm): 0 (0=0-5%)

Brc1ccc(-c2nnc(-c3cccs3)o2)cc1 [compound 4948]
8 ppm gall ratings (Meloidogyne incognita [1]; 8 ppm): 0 (0=0-5%)

FC(F)(F)c1cccc(-c2noc(-c3ccco3)n2)c1 [compound 5181]
8 ppm gall ratings (Meloidogyne incognita [1]; 8 ppm): 0.33

Clc1ccc(-c2cnc(-c3cccs3)o2)cc1 [compound 5864]
1 ppm gall ratings (Meloidogyne incognita [1]; Table 1B test a): 1^a (1=6-20%)

Cc1ccc(-c2noc(-c3cccs3)n2)cc1 [compound 5623]
8 ppm gall ratings (Meloidogyne incognita [1]; 8 ppm): 0 (0=0-5%)

Fc1cc(Cl)ccc1-c1ncc(-c2cccs2)o1 [compound 5970]
1 ppm gall ratings (Meloidogyne incognita [1]; Table 1B test e): 1^e (1=6-20%)

Clc1ccc(-c2nnc(-c3ccco3)o2)cc1 [compound 5082]
8 ppm gall ratings (Meloidogyne incognita [1]; 8 ppm): 1.67

c1ccc(-c2nc(-c3cccs3)cs2)cc1 [compound 1787]
1 ppm gall rating (Meloidogyne incognita [1]; Table 1D test b): 3^b (3=51-100%) | 8 ppm gall rating (Meloidogyne incognita [1]; 8 ppm, Table 1D test b): 1.67^b

Brc1cccc(-c2noc(-c3cccs3)n2)c1 [compound 5663]
1 ppm gall rating (Meloidogyne incognita [1]; Table 1D test b): 1.67^b | 8 ppm gall rating (Meloidogyne incognita [1]; 8 ppm, Table 1D test b): 0^b (0=0-5%) | 8 ppm gall ratings (Meloidogyne incognita [1]; 8 ppm): 0 (0=0-5%)

FC(F)(F)c1ccc(-c2nnc(-c3ccco3)o2)cc1 [compound 5132]
8 ppm gall ratings (Meloidogyne incognita [1]; 8 ppm): 1.33

Cc1cccc(-c2noc(-c3ccco3)n2)c1 [compound 5625]
8 ppm gall ratings (Meloidogyne incognita [1]; 8 ppm): 0.33

FC(F)(F)c1cccc(-c2noc(-c3cccs3)n2)c1 [compound 5212]
8 ppm gall ratings (Meloidogyne incognita [1]; 8 ppm): 1 (1=6-20%)

Cc1ccc(-c2noc(-c3ccco3)n2)cc1 [compound 5735]
1 ppm gall rating (Meloidogyne incognita [1]; Table 1D test a): 2^a (2=21-50%) | 8 ppm gall rating (Meloidogyne incognita [1]; 8 ppm, Table 1D test a): 0^a (0=0-5%)

CCOP(=O)(SC(C)CC)N1CCSC1=O (centres unmarked) [fosthiazate, reference compound]
0-3 vigor 16 DAP (Meloidogyne incognita [2]): 3.0 | 0-3 vigor 21 DAP (Meloidogyne incognita [2]): 3.0 | feeder root (3 = ave) 31 DAP (Meloidogyne incognita [2]): 2.3 | gall % 31 DAP (Meloidogyne incognita [2]): 5% | root wgt (g) 31 DAP (Meloidogyne incognita [2]): 26.4 g | top wgt (lbs) 31 DAP (Meloidogyne incognita [2]): 2.01 lbs | total fruit (lbs) (Meloidogyne incognita [2]): 1.25 lbs

c1csc(-c2nnc(-c3cccc4ccccc34)o2)c1 [compound 5456]
8 ppm gall ratings (Meloidogyne incognita [1]; 8 ppm): 0.67

Ic1ccc(-c2noc(-c3cccs3)n2)cc1 [compound 5468]
8 ppm gall ratings (Meloidogyne incognita [1]; 8 ppm): 1 (1=6-20%)

Cc1ccccc1-c1noc(-c2cccs2)n1 [compound 5741]
1 ppm gall rating (Meloidogyne incognita [1]; Table 1D test a): 1^a (1=6-20%) | 8 ppm gall rating (Meloidogyne incognita [1]; 8 ppm, Table 1D test a): 0^a (0=0-5%)

Cc1ccccc1-c1nnc(-c2cccs2)o1 [compound 5090]
8 ppm gall ratings (Meloidogyne incognita [1]; 8 ppm): 1.67

c1ccc(-c2cc(-c3ccco3)n[nH]2)cc1 [compound 5725]
1 ppm gall rating (Meloidogyne incognita [1]; Table 1D test a): 3^a (3=51-100%) | 8 ppm gall rating (Meloidogyne incognita [1]; 8 ppm, Table 1D test a): 1.33^a

c1cncc(-c2noc(-c3ccco3)n2)c1 [compound 5292]
8 ppm gall ratings (Meloidogyne incognita [1]; 8 ppm): 0.67

Clc1ccc(-c2cnc(-c3ccsc3)o2)cc1 [compound 5886]
1 ppm gall rating (Meloidogyne incognita [1]; Table 1C test b): 1.33^b

c1cncc(-c2noc(-c3cccs3)n2)c1 [compound 5297]
8 ppm gall ratings (Meloidogyne incognita [1]; 8 ppm): 0.33

Cc1ccc(-c2nnc(-c3cccs3)o2)cc1 [compound 5006]
8 ppm gall ratings (Meloidogyne incognita [1]; 8 ppm): 0 (0=0-5%)

c1ccc(-c2noc(-c3ccco3)n2)cc1 [compound 5383]
1 ppm gall ratings (Meloidogyne incognita [1]; Table 1B test a): 1.33^a

COc1ccc(-c2noc(-c3ccoc3C)n2)cc1 [compound 5869]
1 ppm gall rating (Meloidogyne incognita [1]; Table 1C test a): 1^a (1=6-20%)
